This note sets out measurements from ChEMBL document CHEMBL6078714, “Discovery of N-Trifluoromethylated Noscapines as Novel and Potent Agents for the Treatment of Glioblastoma” (J Med Chem, 2025).

Activity calls are given as the source filed them. The rule behind the calls is not given here.

One may read the IC50 as the point on the concentration scale where inhibition reaches its midpoint.

The nature of data set [1]: Stability of compound in sodium phosphate buffer at pH 7.4 measured after 48 hrs by 1H NMR analysis. It is filed as physicochemical. Particulars: pH 7.4, 48 h.
The nature of data set [2]: Stability of compound in 0.1M HCl solution at pH 1.0 measured after 48 hrs by 1H NMR analysis. It is filed as physicochemical. Particulars: buffer, pH 1, 48 h.
The test system of data set [3] is U-87 MG. The data set is described as follows: Antiproliferative activity against human U-87 MG cells assessed as inhibition of cell proliferation incubated for 72 hrs by CCK8 assay. It is filed as functional, cell-based, U-87MG ATCC. (In general: Tetrazolium assays rely on reduction of a dye to a coloured formazan, in cell work by metabolically active cells.)
Data set [4] is described as follows: Permeability of compound incubated for 12 hrs by PAMPA. It is filed as ADME. Particulars: read-out: permeability.
Data set [5] relates to U-118-MG. The data set is described as follows: Antiproliferative activity against human U-118- MG cells assessed as inhibition of cell proliferation by crystal violet staining based analysis. It counts as functional. Particulars: dose 10-40 µM.
For data set [6], the system named is U-118-MG. In words: Antiproliferative activity against human U-118- MG cells assessed as inhibition of cell proliferation at 10 uM by crystal violet staining based analysis. It is filed as functional.
Data set [7] relates to U-118-MG. The data set is described as follows: Antiproliferative activity against human U-118-MG cells assessed as inhibition of cell proliferation incubated for 72 hrs by CCK8 assay. It is filed as functional, cell-based.
Data set [8] deals with U-118-MG. The data set is described as follows: Cell cycle arrest in human U-118-MG cells assessed as accumulation of cells at S phase at 100 uM incubated for 24 hrs by flow cytometric analysis (reference value: 10.7 %). It is filed as functional. Background: A flow cytometer gives signals particle by particle.
Data set [9] in a line: Toxicity in male BALB/c nude mouse xenografted with human U-118-MG cells assessed as body weight loss at 2.5 mg/kg, ip administered daily for 4 weeks. It counts as organism-based. Particulars: in vivo, 672 h. (In general: In xenograft studies the graft and the host belong to different species.)
The subject of data set [10] is U-118-MG. In words: Cell cycle arrest in human U-118-MG cells assessed as accumulation of cells at G1 phase at 100 uM incubated for 24 hrs by flow cytometric analysis (reference value: 56.2 %). It counts as functional.
Data set [11] deals with U-118-MG. In words: Cell cycle arrest in human U-118-MG cells assessed as accumulation of cells at G2 phase at 100 uM incubated for 24 hrs by flow cytometric analysis (reference value: 30.6 %). It counts as functional.
Data set [12] in a line: Nephrotoxicity in male BALB/c nude mouse xenografted with human U-118-MG cells assessed as shedding of renal tubular epithelial cells at 0.5 mg/kg, ip administered daily for 4 weeks by H and E staining based analysis. It counts as toxicity, organism-based. Particulars: in vivo, 672 h.
In data set [13] the test system is U-118-MG. In words: Antitumor activity against human U-118-MG cells xenografted in male BALB/c nude mouse assessed as tumor growth inhibition at 2.5 mg/kg, ip administered daily for 4 weeks relative to control. It counts as functional. Particulars: 672 h, read-out: TGI.
Data set [14] in a line: Nephrotoxicity in male BALB/c nude mouse xenografted with human U-118-MG cells assessed as intravascular necrosis of renal tubules at 0.5 mg/kg, ip administered daily for 4 weeks by H and E staining based analysis. It counts as toxicity, organism-based. Particulars: in vivo, 672 h.
Data set [15] relates to U-87 MG. In words: Antiproliferative activity against human U87 cells. It counts as functional, cell-based, U-87MG ATCC.
Data set [16] can be described thus: Ratio of drug concentration in male Swiss albino mouse brain to plasma at 5 mg/kg, iv measured after 0.5 hrs. Particulars: read-out: BPR. It is filed as ADME, organism-based.
The test system of data set [17] is U-118-MG. The data set is described as follows: Cell cycle arrest in human U-118-MG cells assessed as accumulation of cells at G2 phase at 20 uM incubated for 24 hrs by flow cytometric analysis (reference value: 30.6 %). It is filed as functional.
In data set [18] the test system is U-118-MG. In words: Cell cycle arrest in human U-118-MG cells assessed as accumulation of cells at G1 phase at 20 uM incubated for 24 hrs by flow cytometric analysis (reference value: 56.2 %). It is filed as functional.
Data set [19] is described as follows: Drug distribution in male Swiss albino mouse brain at 5 mg/kg, iv measured after 0.5 hrs. It counts as ADME, organism-based. Particulars: read-out: Ct.
The test system of data set [20] is U-118-MG. In words: Antitumor activity against human U-118-MG cells xenografted in male BALB/c nude mouse assessed as tumor growth inhibition at 10 mg/kg, ip administered daily for 4 weeks relative to control. It is filed as functional. Particulars: 672 h, read-out: TGI.
Data set [21] can be described thus: Drug distribution in male Swiss albino mouse plasma at 5 mg/kg, iv measured after 0.5 hrs. It is filed as ADME, organism-based.
For data set [22], the system named is U-118-MG. The data set is described as follows: Cell cycle arrest in human U-118-MG cells assessed as accumulation of cells at S phase at 20 uM incubated for 24 hrs by flow cytometric analysis (reference value: 10.7 %). It is filed as functional.
Data set [23] concerns U-118-MG. In words: Induction of apoptosis in human U-118-MG cells assessed as apoptotic rate at 20 uM incubated for 24 hrs by Annexin V-FITC/PI staining based flow cytometric analysis relative to control. It is filed as functional.
Data set [24] can be described thus: Stability of compound in sodium carbonate buffer at pH 10 measured after 48 hrs by 1H NMR analysis. It is filed as physicochemical. Particulars: pH 10, 48 h.
Data set [25] in a line: Stability of compound in 0.1M HCl solution at pH 1.0 assessed as parent compound remaining measured after 48 hrs by 1H NMR analysis. It is filed as physicochemical. Particulars: read-out: Stability.
Data set [26] in a line: Stability of compound in 0.1M HCl solution at pH 1.0 assessed as parent compound remaining measured after 6 hrs by 1H NMR analysis. It counts as physicochemical. Particulars: read-out: Stability.

Turning to `FC(F)(F)N1CCc2ccccc2[C@@H]1c1ccccc1`, the Stability result in [1] and in data set [2] was “Stable” in each case.
Regarding `COc1ccc2c(c1OC)C(=O)O[C@@H]2[C@H]1c2c(c(I)c3c(c2OC)OCO3)CCN1C(F)(F)F`, the IC50 in the data set on U-87 MG [3] turned out to be 33.4 µM; in the data set on U-118-MG [7], 17.5 µM. Further, the Papp at 12 h in data set [4] stood at 15.8 ×10⁻⁶ cm/s. For the same compound, in the data set with U-118-MG [5], the Activity result was “Dose-dependent-effect”. Also, the result in the data set on U-118-MG [6] was Active.
Take `CC1c2ccccc2CCN1C(F)(F)F` (configuration not stated): the Stability result in data set [1] and in data set [2] was “Stable” each time.
With `Cn1nnc2c(C(N)=O)ncn2c1=O` [TEMOZOLOMIDE], the Activity with U-118-MG [8] is listed as 18.9%; in [9], “Toxic”; in the data set on U-118-MG [10], 41.3%; with U-118-MG [11] it was 36.8%; in data set [12], “Toxic”; in [14] it was “Toxic”. For the same compound, the IC50 with U-87 MG [3] and with U-118-MG [7] was over 100 µM throughout. Also, the Papp at 12 h in [4] was 1.47 ×10⁻⁶ cm/s. Besides, the inhibition in vivo at 2.5 mg/kg with U-118-MG [13] amounted to 80.4%.
Turning to `COc1ccc2c(c1OC)C(=O)O[C@@H]2[C@H]1c2c(c(Cl)c3c(c2OC)OCO3)CCN1C(F)(F)F`, the IC50 in the data set on U-87 MG [3] is 25.8 µM; in the data set with U-118-MG [7], 9.83 µM. Moreover, in [4], the Papp at 12 h worked out at 16.8 ×10⁻⁶ cm/s. Also, the Activity result in the data set on U-118-MG [5] was “Dose-dependent-effect”. In addition, the outcome with U-118-MG [6] was Active.
In the case of `CC1=C2CC[C@@](C)(O)[C@@H]2[C@H]2OC(=O)[C@@H](CN(C)C)[C@@H]2CC1`, 21 µM corresponded to half-maximal inhibition with U-87 MG [15] (IC50).
For `COc1ccc2c(c1OC)C(=O)O[C@@H]2[C@H]1c2c(c(C#N)c3c(c2OC)OCO3)CCN1C(F)(F)F`, the IC50 in the data set on U-87 MG [3] is 39.1 µM; in the data set on U-118-MG [7], 19.7 µM. Also, in data set [4], the Papp at 12 h amounted to 12.8 ×10⁻⁶ cm/s. The Activity entry in the data set on U-118-MG [5] is “Dose-dependent-effect”. The outcome with U-118-MG [6] was Active.
Regarding `COc1ccc2c(c1OC)C(=O)O[C@@H]2[C@H]1c2c(cc3c(c2OC)OCO3)CCN1C` [NOSCAPINE], the Kp at 0.5 h in data set [16] was 0.43. In addition, the IC50 with U-87 MG [3] and in the data set on U-118-MG [7] was over 100 µM throughout. The Papp at 12 h in data set [4] turned out to be 11 ×10⁻⁶ cm/s. The Activity came to 34.1% with U-118-MG [17], 52.9% in the data set on U-118-MG [18], 10.7% in the data set with U-118-MG [22] and 16.3% in the data set on U-118-MG [23]. Further, the concentration at 0.5 h in data set [19] was found to be 19.6 ng/g; in data set [21], 45.3 ng/mL. Besides, the inhibition in vivo at 10 mg/kg with U-118-MG [20] was 31%.
On to `FC(F)(F)N1CCc2ccccc2C1Cc1ccccc1` (configuration not stated), for which the Stability entry in data set [1] and in data set [2] was “Stable” each time.
As to `COc1ccc2c(c1OC)C(=O)O[C@@H]2[C@H]1c2c(cc3c(c2OC)OCO3)CCN1C(F)(F)F`, the IC50 in the data set on U-87 MG [3] worked out at 67.5 µM; in the data set with U-118-MG [7] it was 31.3 µM. For the same compound, in data set [4], the Papp at 12 h came out at 18 ×10⁻⁶ cm/s. In addition, the Activity entry in the data set with U-118-MG [5] was “Dose-dependent-effect”. For the same compound, the Stability entry in [1] and in data set [24] was “Stable” each time. The outcome in the data set on U-118-MG [6] was Active. In addition, the remaining at 48 h in data set [25] is 73%.
Consider `FC(F)(F)N1CCCc2ccccc21`, for which the remaining at 6 h in data set [26] worked out at 7%. For the same compound, the Stability result in data set [1], in data set [2] and in data set [24] was “Unstable” throughout.
In the case of `FC(F)(F)N1CCc2ccccc2C1`, the Stability entry in data set [1] and in data set [2] was “Stable” in each case.
